Assay results published in PubChem BioAssay AID1963836 (Molecular Pharmacology Branch, DTP, NCI, 2024).

Test system: 857933-349-R-J2-PDC complex spheroid viability
Experiment: Anticancer human tumor 857933-349-R-J2-PDC patient-derived colon adenocarcinoma cell line growth inhibition [POLQ]
Conditions: for IC50: curve of first compound; for viability, T/C: stronger effect = lower value
Protocol: Multicellular complex tumor spheroid response to Polymerase (POL) inhibitors (novobiocin, ART-558, RP6685) in combination with a variety of drugs and investigational agents in selected tumor cell lines
The POL inhibitors (novobiocin, ART-558, and RP6685) were evaluated both individually and in combination with standard of care and investigational anticancer small molecules within a complex spheroid model of solid tumors. . Complex spheroids include a stromal component modeled by human endothelial cells (HUVEC) and fibroblasts modeled by human mesenchymal stem cells (MSCs). The concentration ranges selected for each drug and investigational agent were based upon clinically achievable concentrations if the clinical Cmax of the agent was known.
Compounds. The drugs and investigational agents: novobiocin (NSC847541), ART-558 (NSC835418), RP-6685 (NSC848927), peposertib (NSC802822), ceralasertib (NSC780249), elimusertib (NSC800525), camonsertib (NSC841442), AZD-1390 (NSC803789), olaparib (NSC753686), talazoparib (NSC767125), rucaparib (NSC756644), sotorasib (NSC818433), MRTX-1133 (NSC836407), SN-38 (NSC673596), topotecan (NSC609699), epotoside (NSC141540), doxorubicin (NSC123127), gemcitabine (NSC613327), 5-fluorouracil (NSC19893), paclitaxel (NSC125973), vemurafenib (NSC761431), MSA-2 (NSC828583), SN-011 (NSC837082), adavosertib (NSC754352), prexasertib (NSC758257), carboplatin (NSC241240) and oxaliplatin (NSC266046), were obtained from the National Cancer Institute (NCI) Developmental Therapeutics Program Chemical Repository (21). The FDA-approved anticancer drug set is available from the Developmental Therapeutics Program at https://dtp.cancer.gov/organization/dscb/obtaining/. […] The stock solutions were prepared in dimethyl sulfoxide (DMSO, Sigma-Aldrich, St. Louis, MO, cat. D2650), except for the platinum compounds which were prepared in saline (Quality Biological, Gaithersburg, MD, cat. 114-055-101), at 800-fold the tested concentration and stored at -70 degrees C prior to their use. All drugs and investigational agents were tested over a range starting from a high concentration at or near the clinical Cmax and decreasing in half-log increments. If the clinical Cmax for an agent had not been determined, the highest concentration tested was 10 microM, except for SN-38, which was tested at a high concentration of 1 microM.
Cell Culture. All cells were maintained in an incubator at 37 degrees C and 5% CO2 with 95% humidity. The PDC lines were cultured according to standard operating procedures established by the NCI PDMR (https://pdmr.cancer.gov). Table 3 of the manuscript, lists the cell lines along with the number of the three cell types plated to form the mct-spheroids and media for tumor cell growth. After thawing, all PDC lines, except 997537-175-T-J1-PDC and 415267-285-R-J2-PDC, were cultured in Matrigel-coated flasks prepared with a working solution of 1X Ham's F-12 nutrient mix, without supplementation (Thermo Fisher Scientific, cat. 11765054), 100 U/mL penicillin-streptomycin (Thermo Fisher Scientific, cat. 15140122), and 2.5% Matrigel (Corning Inc., Corning, NY, cat. 354248) for the first three passages. The two PDC lines 997537-175-T-J1-PDC and 415267-285-R-J2-PDC were cultured on uncoated flasks. The 857933-349-R-J2-PDC line was cultured in 6C/Colon 1B media containing advanced DMEM/F-12 (Thermo Fisher Scientific, cat. 12634028), 10 mM HEPES (Thermo Fisher Scientific, cat. 15630080), 1X GlutaMAX supplement (Thermo Fisher Scientific, cat. 35050061), 0.1 mg/mL primocin (InvivoGen, San Diego, CA, cat. ant-pm-2), 10% defined fetal bovine serum, heat inactivated (HyClone Laboratories Inc., Logan, UT, cat. SH30070.03HI), 50% L-WRN conditioned media (ATCC, cat. CRL-3276), 1.25 mM N-Acetyl-L-cysteine (Sigma-Aldrich, cat. A9165), 10 mM nicotinamide (Sigma-Aldrich, cat. N0636), 1X B-27 supplement (Thermo Fisher Scientific, cat. 17504044), 1X N-2 supplement (Thermo Fisher Scientific, cat. […]
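Note: spheroids exposed to compounds for seven days before readout.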

Structure (SMILES): C#Cc1c(F)ccc2cc(O)cc(-c3ncc4c(N5CC6CCC(C5)N6)nc(OCC56CCCN5CC(F)C6)nc4c3F)c12 (configuration not stated) + Nc1ccc(C#CCN(C(=O)Cc2ncc(C(F)(F)F)cc2C(F)(F)F)c2ccc(F)cc2)nn1
- IC50 (second compound 0.0316 µM): > 10 µM
- IC50 (second compound 0.1 µM): > 10 µM
- IC50 (second compound 0.316 µM): > 10 µM
- IC50 (second compound 1 µM): > 10 µM
- IC50 (second compound 3.16 µM): > 10 µM
- IC50 (second compound 10 µM): > 10 µM
- viability, T/C (second compound 0.0316 µM, first compound 0.0316 µM): 84.4%
- viability, T/C (second compound 0.0316 µM, first compound 0.1 µM): 99.5%
- viability, T/C (second compound 0.0316 µM, first compound 0.316 µM): 82.7%
- viability, T/C (second compound 0.0316 µM, first compound 1 µM): 80.8%
- viability, T/C (second compound 0.0316 µM, first compound 3.16 µM): 78.2%
- viability, T/C (second compound 0.0316 µM, first compound 10 µM): 73.1%
- viability, T/C (second compound 0.1 µM, first compound 0.0316 µM): 101%
- viability, T/C (second compound 0.1 µM, first compound 0.1 µM): 101%
- viability, T/C (second compound 0.1 µM, first compound 0.316 µM): 86.8%
- viability, T/C (second compound 0.1 µM, first compound 1 µM): 87.1%
- viability, T/C (second compound 0.1 µM, first compound 3.16 µM): 84%
- viability, T/C (second compound 0.1 µM, first compound 10 µM): 80.7%
- viability, T/C (second compound 0.316 µM, first compound 0.0316 µM): 95.3%
- viability, T/C (second compound 0.316 µM, first compound 0.1 µM): 92.4%
- viability, T/C (second compound 0.316 µM, first compound 0.316 µM): 79%
- viability, T/C (second compound 0.316 µM, first compound 1 µM): 73%
- viability, T/C (second compound 0.316 µM, first compound 3.16 µM): 93.8%
- viability, T/C (second compound 0.316 µM, first compound 10 µM): 75.5%
- viability, T/C (second compound 1 µM, first compound 0.0316 µM): 104%
- viability, T/C (second compound 1 µM, first compound 0.1 µM): 100%
- viability, T/C (second compound 1 µM, first compound 0.316 µM): 79.5%
- viability, T/C (second compound 1 µM, first compound 1 µM): 79.7%
- viability, T/C (second compound 1 µM, first compound 3.16 µM): 86.8%
- viability, T/C (second compound 1 µM, first compound 10 µM): 70.6%
- viability, T/C (second compound 3.16 µM, first compound 0.0316 µM): 101%
- viability, T/C (second compound 3.16 µM, first compound 0.1 µM): 86.8%
- viability, T/C (second compound 3.16 µM, first compound 0.316 µM): 82.7%
- viability, T/C (second compound 3.16 µM, first compound 1 µM): 76.7%
- viability, T/C (second compound 3.16 µM, first compound 3.16 µM): 107%
- viability, T/C (second compound 3.16 µM, first compound 10 µM): 68.6%
- viability, T/C (second compound 10 µM, first compound 0.0316 µM): 87%
- viability, T/C (second compound 10 µM, first compound 0.1 µM): 76.8%
- viability, T/C (second compound 10 µM, first compound 0.316 µM): 87%
- viability, T/C (second compound 10 µM, first compound 1 µM): 73.9%
- viability, T/C (second compound 10 µM, first compound 3.16 µM): 76.3%
- viability, T/C (second compound 10 µM, first compound 10 µM): 69%
